Series [1] is described as follows: Half life in C57BL/6 mouse at 3 mg/kg, iv administered as single dose. It is filed as ADME, organism-based. The settings on record: in vivo.
Series [2] in a line: Oral bioavailability in single dosed C57BL/6 mouse at 20 mg/kg. The format is ADME, organism-based. The note with it: in vivo.
For another series, the system named is THP-1. In words: Inhibition of caspase-1-mediated IL-1beta production in LPS/ATP induced human THP1 cells by ELISA analysis. The format is functional, cell-based. (ELISA stands for enzyme-linked immunosorbent assay.)
The target in the next series is T1, Caspase-1 (Homo sapiens, UniProt P29466).
T1 sequence (P29466 whole entry): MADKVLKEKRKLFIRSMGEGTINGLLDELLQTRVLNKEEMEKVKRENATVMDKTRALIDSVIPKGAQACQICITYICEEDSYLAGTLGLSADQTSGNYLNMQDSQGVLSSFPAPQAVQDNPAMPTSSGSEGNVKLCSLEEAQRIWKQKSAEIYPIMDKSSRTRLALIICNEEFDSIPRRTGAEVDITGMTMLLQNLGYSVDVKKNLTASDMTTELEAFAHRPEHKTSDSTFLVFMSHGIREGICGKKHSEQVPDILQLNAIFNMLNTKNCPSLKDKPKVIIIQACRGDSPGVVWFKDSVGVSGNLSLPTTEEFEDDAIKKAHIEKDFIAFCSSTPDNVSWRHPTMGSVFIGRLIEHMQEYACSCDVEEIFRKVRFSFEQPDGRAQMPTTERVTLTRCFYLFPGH
As to the kind of experiment: Inhibition of caspase-1 in LPS stimulated human PMBC cells after 2 hrs by ELISA analysis. It is filed as cell-based.

The target in another series is T2, Toll-like receptor 4 (Mus musculus, UniProt Q9QUK6).
T2 sequence (Q9QUK6 whole entry): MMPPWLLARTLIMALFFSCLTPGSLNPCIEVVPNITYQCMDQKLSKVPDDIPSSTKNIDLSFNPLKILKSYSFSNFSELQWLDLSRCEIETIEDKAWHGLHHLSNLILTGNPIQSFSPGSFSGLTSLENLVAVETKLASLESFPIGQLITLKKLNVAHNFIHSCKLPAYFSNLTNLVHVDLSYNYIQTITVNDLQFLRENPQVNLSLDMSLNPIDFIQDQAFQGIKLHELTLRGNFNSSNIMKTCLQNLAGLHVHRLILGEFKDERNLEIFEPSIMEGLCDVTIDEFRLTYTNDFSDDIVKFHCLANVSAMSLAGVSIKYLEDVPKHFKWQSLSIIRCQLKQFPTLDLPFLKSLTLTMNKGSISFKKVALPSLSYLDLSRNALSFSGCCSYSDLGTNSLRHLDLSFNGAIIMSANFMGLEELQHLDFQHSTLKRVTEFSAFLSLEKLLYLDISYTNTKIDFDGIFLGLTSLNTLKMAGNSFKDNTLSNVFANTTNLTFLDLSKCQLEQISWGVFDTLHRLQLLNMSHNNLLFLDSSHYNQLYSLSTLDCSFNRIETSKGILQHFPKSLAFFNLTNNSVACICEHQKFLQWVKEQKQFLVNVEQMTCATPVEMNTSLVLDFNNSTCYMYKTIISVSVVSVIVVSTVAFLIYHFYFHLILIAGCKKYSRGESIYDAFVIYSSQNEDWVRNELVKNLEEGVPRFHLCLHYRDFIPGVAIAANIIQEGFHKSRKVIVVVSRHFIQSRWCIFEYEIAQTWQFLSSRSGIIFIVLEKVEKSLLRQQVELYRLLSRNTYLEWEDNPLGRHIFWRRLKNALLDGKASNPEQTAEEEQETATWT
In words: Inhibition of TLR4 in LPS/INFgamma stimulated mouse peritoneal macrophages assessed as inhibition of IL1-beta after 20 hrs by ELISA analysis.

The target of series [3] is NACHT, LRR and PYD domains-containing protein 3 (Mus musculus, UniProt Q8R4B8). In words: Inhibition of NLRP3 in LPS stimulated mouse BMDM cells after 15 mins followed by addition of ATP by ELISA analysis. The format is cell-based.
Chain of NACHT, LRR and PYD domains-containing protein 3 (Q8R4B8 whole entry, the tested form may be a part): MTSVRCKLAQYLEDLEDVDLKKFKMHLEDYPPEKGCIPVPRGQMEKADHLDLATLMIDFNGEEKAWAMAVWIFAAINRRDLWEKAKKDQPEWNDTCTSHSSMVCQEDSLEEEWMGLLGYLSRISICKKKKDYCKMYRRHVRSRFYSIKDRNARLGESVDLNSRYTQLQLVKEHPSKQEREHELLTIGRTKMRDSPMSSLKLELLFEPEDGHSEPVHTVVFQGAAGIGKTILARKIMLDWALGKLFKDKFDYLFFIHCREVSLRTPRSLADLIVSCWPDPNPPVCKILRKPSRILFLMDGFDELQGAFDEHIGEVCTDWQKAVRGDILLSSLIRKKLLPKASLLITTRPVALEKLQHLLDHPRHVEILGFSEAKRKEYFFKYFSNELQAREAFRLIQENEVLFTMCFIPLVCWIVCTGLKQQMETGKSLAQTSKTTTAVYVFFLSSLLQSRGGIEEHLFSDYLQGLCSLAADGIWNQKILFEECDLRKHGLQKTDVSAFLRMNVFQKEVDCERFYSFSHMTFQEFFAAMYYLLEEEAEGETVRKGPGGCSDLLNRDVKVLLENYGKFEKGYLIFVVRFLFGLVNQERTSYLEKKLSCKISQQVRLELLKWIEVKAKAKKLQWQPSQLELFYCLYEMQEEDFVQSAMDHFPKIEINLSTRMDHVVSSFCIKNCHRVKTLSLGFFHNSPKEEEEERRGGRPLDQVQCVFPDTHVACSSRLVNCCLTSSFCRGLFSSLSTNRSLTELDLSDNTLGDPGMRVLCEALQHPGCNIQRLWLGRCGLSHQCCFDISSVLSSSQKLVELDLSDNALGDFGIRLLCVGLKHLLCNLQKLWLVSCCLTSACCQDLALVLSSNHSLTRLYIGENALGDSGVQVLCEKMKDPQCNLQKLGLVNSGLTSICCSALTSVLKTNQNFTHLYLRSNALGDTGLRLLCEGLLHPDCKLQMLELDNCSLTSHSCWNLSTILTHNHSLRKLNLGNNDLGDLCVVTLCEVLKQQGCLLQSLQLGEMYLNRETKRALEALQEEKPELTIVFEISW
The next series has as its target Pannexin-1 (Homo sapiens, UniProt Q96RD7). In words: Binding affinity to pannexin 1 channel (unknown origin).
The nature of series [4]: Inhibition of organic anion transporter (unknown origin). The arrangement: species or system Homo sapiens.
The next series in a line: clinical. The note with it: human, plasma, po, 500 mg.

Some results are limits rather than exact numbers.

The results in this text go back to ChEMBL document CHEMBL3779837, “Inhibiting the Inflammasome: A Chemical Perspective” (J Med Chem, 2016).

Chain of Pannexin-1 (Q96RD7 whole entry): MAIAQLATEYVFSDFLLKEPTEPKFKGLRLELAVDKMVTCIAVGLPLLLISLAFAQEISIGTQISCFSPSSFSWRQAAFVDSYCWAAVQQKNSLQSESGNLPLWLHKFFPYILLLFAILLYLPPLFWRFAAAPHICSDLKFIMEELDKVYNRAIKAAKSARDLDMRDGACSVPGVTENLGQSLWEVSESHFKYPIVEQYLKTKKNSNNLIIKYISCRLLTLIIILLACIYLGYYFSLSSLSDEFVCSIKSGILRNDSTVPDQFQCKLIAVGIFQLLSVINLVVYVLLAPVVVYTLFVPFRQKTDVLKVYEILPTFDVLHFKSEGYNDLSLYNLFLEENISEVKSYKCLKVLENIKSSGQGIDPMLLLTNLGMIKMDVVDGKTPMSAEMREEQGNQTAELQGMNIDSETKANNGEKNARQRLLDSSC

Consider `CC(C)(O)c1coc(S(=O)(=O)NC(=O)Nc2c3c(cc4c2CCC4)CCC3)c1`, for which the half-life (commonly the time needed for the level to fall by half in the phase considered) in series [1] was 3 h. For the same compound, the bioavailability (commonly dose-corrected exposure relative to a reference, in per cent) in [2] came to 68%.

For the compound `O=C1C(Br)=C[C@@H](O)[C@@H]2O[C@H]12`, half-maximal inhibition in the series on THP-1 (IC50) required 190 nM.

For `CCO[C@@H]1OC(=O)C[C@@H]1NC(=O)[C@@H]1CCCN2C(=O)CC[C@H](NC(=O)c3nccc4ccccc34)C(=O)N12` [PRALNACASAN], at Caspase-1, the IC50 (in general, the concentration that inhibits the measured activity by half) was 420 nM.

Take `O=C1C(Br)=C[C@H](O)[C@@H]2O[C@H]12`: in the series on THP-1, the midpoint of inhibition, the IC50, lay at 280 nM.

Turning to `O=C1C(Br)=C[C@@H](O)[C@H]2O[C@@H]12`, the midpoint of inhibition with THP-1, the IC50, lay at 200 nM.

On to `O=C[C@H](CC(=O)O)NC(=O)[C@@H]1CCCN2C(=O)CC[C@H](NC(=O)c3nccc4ccccc34)C(=O)N12` [VRT-18858], for which inhibition at Caspase-1 was half-maximal at 670 nM (IC50).

As to `CCOC(=O)C1=CCCC[C@H]1S(=O)(=O)Nc1ccc(F)cc1Cl` [RESATORVID], the IC50 on Toll-like receptor 4 was found to be 5.7 nM.

`O=[N+]([O-])/C=C/c1ccc2c(c1)OCO2` registered an IC50 in series [3] of 2000 nM.

The compound `O=C1C(Br)=C[C@H](O)[C@H]2O[C@@H]12` yielded a 50% inhibitory concentration (IC50) in the series with THP-1 of 170 nM.

Turning to `CCCN(CCC)S(=O)(=O)c1ccc(C(=O)O)cc1` [PROBENECID], the results for the IC50 (at Pannexin-1; in [4]) were 150000 nM and under 100000 nM, respectively. For the same compound, the Cmax – broadly, the peak of the concentration-time curve – at 48 h in the series “clinical” is 124 µM.
